Data as given in publication PMC12364115, “High-throughput virtual screening, identification and in vitro biological evaluation of novel inhibitors of PLK1 and NRP1” (Journal of Enzyme Inhibition and Medicinal Chemistry, 2025).
Values belong to the compound of their own block, whether it stands above or below them.

How the values were obtained:
PLK1 = target: T1, PLK1 (Homo sapiens, UniProt P53350); assay: PLK1 inhibition assay; format: biochemical
T1 construct: purchased Abcam (Cambridge, MA, USA)
Method: The method was as previously described. Briefly, the enzyme reaction mixture containing different doses of compounds was incubated for 90 min at room temperature. Then the mixture was transferred to a Neutravidin-coated 384-well plate and incubated for 60 min at room temperature. Then the wells were incubated with 50 μL of the antibody mixture for 1 h. The bound europium was liberated using 50 μL of Enhancement Solution.

NRP1 = target: T2, NRP1 (Homo sapiens, UniProt O14786); assay: NRP1 inhibition assay (125I-VEGF-A165 binding, HUVEC cells transfected with NRP1)
T2 construct: expressed in transfected cells; host or cells: HUVEC
Method: The method was as previously described. Briefly, HUVEC cells transfected with NRP1 were added to a 96-well plate and after growing to confluence, and the compounds were added to each well at different concentrations. Then, the ^125I-VEGF-A165 (0.1 nM) was added to measure non-specific binding. Data curves were plotted and half maximal inhibitory concentrations (IC50) were derived for the selected compounds using Prism 6.0 software.

PLK2 = target: T3, PLK2 (Homo sapiens, UniProt Q9NYY3); assay: In vitro selectivity assay PLK2; format: biochemical
T3 construct: ICE Bioscience Inc (Beijing, China) (performed the assay)
Method: (§1) To assess the selectivity of PLN-5, we systematically determined its inhibitory activity against PLK2, PLK3, PLK4 (homologues of PLK1) and […]. This assay was performed by ICE Bioscience Inc (Beijing, China).

PLK3 = target: T4, PLK3 (Homo sapiens, UniProt Q9H4B4); assay: In vitro selectivity assay PLK3; format: biochemical; details: n = 3
T4 construct: ICE Bioscience Inc (Beijing, China) (performed the assay)
Method: as §1

PLK4 = target: T5, PLK4 (Homo sapiens, UniProt O00444); assay: In vitro selectivity assay PLK4; format: biochemical
T5 construct: ICE Bioscience Inc (Beijing, China) (performed the assay)
T5 sequence (O00444 1-970): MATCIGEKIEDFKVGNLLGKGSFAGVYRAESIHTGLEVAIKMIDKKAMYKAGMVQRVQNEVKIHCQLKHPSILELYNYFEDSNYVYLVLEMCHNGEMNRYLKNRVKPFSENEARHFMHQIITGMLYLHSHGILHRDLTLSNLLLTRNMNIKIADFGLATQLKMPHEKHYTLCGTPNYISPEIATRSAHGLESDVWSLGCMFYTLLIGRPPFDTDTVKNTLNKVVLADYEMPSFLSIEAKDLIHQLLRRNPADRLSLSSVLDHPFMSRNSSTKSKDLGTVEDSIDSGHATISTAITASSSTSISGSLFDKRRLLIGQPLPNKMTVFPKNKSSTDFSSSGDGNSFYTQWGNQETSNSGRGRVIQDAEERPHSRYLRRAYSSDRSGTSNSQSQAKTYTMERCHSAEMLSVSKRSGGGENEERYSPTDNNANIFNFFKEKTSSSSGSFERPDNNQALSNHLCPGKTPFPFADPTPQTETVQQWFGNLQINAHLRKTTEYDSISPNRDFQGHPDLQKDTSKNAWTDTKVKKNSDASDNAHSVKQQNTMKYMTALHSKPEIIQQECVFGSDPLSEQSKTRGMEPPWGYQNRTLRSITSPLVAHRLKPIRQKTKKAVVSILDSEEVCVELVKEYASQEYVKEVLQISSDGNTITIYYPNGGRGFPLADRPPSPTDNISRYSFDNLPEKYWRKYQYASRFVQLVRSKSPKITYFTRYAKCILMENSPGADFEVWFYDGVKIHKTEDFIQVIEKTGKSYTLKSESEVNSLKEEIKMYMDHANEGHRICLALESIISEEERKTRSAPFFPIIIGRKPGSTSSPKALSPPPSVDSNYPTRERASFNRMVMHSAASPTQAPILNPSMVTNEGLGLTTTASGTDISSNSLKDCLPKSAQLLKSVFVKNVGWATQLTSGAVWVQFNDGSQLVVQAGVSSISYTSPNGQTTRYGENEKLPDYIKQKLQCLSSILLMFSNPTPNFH
Method: as §1

NRP2 = target: T6, NRP2 (Homo sapiens, UniProt O60462); assay: In vitro selectivity assay NRP2; format: biochemical; details: n = 3
T6 construct: ICE Bioscience Inc (Beijing, China) (performed the assay)
T6 sequence (O60462 21-931): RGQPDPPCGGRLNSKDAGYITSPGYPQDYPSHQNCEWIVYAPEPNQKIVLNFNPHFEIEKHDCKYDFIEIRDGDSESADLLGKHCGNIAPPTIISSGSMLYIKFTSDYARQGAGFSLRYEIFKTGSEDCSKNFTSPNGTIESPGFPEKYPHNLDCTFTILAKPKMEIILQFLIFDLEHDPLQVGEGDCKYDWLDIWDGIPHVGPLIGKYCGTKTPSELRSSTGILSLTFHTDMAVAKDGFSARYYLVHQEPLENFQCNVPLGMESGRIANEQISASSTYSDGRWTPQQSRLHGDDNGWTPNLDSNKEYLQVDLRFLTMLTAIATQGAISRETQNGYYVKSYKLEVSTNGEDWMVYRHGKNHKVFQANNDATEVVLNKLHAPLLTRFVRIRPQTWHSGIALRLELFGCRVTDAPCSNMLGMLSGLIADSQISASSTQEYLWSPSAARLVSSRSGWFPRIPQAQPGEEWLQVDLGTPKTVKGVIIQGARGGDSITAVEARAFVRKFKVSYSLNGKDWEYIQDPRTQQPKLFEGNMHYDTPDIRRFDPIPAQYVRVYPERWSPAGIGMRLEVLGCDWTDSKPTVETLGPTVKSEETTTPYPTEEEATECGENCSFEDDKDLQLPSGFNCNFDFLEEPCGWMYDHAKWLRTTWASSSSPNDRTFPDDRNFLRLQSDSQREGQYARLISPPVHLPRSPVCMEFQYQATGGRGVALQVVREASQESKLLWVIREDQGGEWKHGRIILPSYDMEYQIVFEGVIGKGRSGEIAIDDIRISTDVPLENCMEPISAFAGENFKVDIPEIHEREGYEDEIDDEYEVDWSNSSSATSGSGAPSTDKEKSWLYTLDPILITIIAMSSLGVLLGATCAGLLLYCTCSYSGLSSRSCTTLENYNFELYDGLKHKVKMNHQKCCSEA
Method: as §1

NCI-H460 cells = assay: MTT assay NCI-H460; format: cell-based, human
Method: (§2) The lung cancer cells NCI-H460 (large cell lung carcinoma), A549 (adenocarcinoma), A427 (adenocarcinoma) and normal lung cells BEAS-2B (human normal lung epithelial cells) were purchased from The American Type Culture Collection (ATCC) (Manassas, VA, USA). The cells were cultured with Roswell Park Memorial Institute (RPMI) ‐1640 medium. The temperature of the cell culture was maintained at 37 °C. Hit compounds were obtained commercially from WuXi AppTec (PLN-1, Lot NO: P112561-P1; PLN-2, Lot NO: P112561-P2; PLN-3, Lot NO: P112561-P3; PLN-4, Lot NO: P112561-P4; PLN-5, Lot NO: P112561-P5) (Table S1). The purity of PLN 1-5 was more than 98% as determined by HPLC (Supplementary material). Human PLK1 and NRP1 proteins were purchased from Abcam (Cambridge, MA, USA).
(§3) Cells were seeded in 96-well plates (5 × 10^4 cells/well) and incubated overnight. Cells were incubated with different concentrations of PLN-5 at 37 °C for 72 h. After removal of the medium, MTT stock solution (5 mg/ml) was added and the incubation continued for 4 h. After centrifugation, the insoluble crystals were dissolved in dimethyl sulfoxide and gently shaken for 15 min. Finally, absorbance was measured at 570 nm using a microplate reader. The IC50 were calculated using Prism 6.0 software.

A549 cells = assay: MTT assay A549; format: cell-based; details: Homo sapiens, 72 h treatment, mean ± SD, n = 3
Method: as §2, §3

A427 cells = assay: MTT assay A427; format: cell-based; details: Homo sapiens, A-427, 72 h treatment, mean ± SD, n = 3
Method: as §2, §3

BEAS-2B cells = assay: MTT assay BEAS-2B; format: cell-based, human; details: normal lung cells, 72 h treatment, n = 3
Method: as §2, §3

T2 sequence (O14786 22-923): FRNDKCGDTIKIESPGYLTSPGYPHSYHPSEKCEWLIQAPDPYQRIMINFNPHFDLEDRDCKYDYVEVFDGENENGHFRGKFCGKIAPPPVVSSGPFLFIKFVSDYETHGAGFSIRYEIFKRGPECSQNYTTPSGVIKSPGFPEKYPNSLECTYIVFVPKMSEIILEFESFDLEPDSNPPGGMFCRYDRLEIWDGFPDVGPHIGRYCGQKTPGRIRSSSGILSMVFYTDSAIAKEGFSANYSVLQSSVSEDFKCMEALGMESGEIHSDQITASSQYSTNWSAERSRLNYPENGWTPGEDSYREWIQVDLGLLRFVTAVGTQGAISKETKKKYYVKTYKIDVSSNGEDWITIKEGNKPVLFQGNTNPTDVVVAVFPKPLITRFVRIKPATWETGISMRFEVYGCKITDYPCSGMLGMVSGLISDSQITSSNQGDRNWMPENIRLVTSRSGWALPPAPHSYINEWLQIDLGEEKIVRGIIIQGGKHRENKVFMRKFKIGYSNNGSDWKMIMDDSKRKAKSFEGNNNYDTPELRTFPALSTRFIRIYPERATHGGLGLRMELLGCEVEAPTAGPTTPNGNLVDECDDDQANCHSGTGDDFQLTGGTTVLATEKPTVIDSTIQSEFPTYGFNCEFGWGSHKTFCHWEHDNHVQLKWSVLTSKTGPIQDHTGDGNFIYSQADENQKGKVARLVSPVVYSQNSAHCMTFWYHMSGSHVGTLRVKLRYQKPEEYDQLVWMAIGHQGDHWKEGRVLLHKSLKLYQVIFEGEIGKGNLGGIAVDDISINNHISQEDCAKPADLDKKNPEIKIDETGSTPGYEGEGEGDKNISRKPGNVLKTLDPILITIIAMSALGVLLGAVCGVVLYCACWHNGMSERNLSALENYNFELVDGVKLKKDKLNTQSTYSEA
T1 sequence (P53350 whole entry): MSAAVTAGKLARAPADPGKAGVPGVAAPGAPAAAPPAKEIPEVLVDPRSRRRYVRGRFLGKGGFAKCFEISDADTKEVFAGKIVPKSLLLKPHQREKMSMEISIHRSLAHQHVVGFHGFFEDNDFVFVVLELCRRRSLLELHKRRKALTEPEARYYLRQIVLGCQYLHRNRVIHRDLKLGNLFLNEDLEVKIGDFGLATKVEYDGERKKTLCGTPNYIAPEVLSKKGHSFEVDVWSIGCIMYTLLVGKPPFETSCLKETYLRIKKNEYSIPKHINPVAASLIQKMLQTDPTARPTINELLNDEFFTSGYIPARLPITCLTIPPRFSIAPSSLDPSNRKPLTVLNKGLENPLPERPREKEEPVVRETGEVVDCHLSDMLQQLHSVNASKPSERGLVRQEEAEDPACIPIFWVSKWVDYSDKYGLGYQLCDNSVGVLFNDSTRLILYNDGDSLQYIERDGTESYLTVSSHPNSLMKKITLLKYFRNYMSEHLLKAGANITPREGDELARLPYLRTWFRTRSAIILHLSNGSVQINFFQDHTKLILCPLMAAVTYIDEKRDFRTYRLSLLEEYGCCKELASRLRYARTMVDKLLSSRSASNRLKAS
T4 sequence (Q9H4B4 whole entry, species assumed): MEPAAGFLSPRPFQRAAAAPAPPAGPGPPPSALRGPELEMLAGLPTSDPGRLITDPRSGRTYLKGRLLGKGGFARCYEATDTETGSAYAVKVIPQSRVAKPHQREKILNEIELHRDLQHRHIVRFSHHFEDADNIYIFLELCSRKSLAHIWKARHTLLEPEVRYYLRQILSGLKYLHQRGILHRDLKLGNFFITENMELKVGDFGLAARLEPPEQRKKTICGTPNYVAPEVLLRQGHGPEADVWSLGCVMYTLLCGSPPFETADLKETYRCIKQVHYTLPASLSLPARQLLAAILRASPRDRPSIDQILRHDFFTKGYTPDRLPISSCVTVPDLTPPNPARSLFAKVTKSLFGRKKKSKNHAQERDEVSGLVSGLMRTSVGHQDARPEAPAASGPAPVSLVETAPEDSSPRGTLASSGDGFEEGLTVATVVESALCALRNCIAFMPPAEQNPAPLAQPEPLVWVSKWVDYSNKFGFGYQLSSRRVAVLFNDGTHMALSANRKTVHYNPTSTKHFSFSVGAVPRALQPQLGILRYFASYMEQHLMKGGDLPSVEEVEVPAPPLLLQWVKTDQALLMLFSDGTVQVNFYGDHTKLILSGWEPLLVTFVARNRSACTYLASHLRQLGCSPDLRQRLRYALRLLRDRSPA
T3 sequence (Q9NYY3 whole entry, species assumed): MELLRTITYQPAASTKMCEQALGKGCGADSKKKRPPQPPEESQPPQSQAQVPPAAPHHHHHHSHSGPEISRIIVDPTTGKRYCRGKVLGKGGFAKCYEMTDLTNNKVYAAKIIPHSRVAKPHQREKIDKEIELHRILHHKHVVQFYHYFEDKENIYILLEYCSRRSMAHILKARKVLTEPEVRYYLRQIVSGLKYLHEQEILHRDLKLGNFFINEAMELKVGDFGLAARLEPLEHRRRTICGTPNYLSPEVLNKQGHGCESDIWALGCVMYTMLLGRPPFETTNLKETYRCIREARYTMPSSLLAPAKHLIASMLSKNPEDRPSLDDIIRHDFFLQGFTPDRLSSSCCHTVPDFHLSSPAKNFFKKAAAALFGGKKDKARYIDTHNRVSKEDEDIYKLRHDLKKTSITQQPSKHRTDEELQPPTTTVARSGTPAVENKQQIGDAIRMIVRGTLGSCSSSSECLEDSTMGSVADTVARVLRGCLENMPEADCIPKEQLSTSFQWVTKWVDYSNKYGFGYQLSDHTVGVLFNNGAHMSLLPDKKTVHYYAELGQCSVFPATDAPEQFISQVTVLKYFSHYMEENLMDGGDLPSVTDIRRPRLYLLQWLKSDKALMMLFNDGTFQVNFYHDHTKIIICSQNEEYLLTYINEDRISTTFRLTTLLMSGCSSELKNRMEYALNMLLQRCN

PLK1 (IC50, nM) (PLK1; mean ± SD, n = 3): no inhibition
IC50 (NRP1; mean ± SD, n = 3): 640 ± 20.8 nM
SMILES: NC(N)=NCCC[C@H](NC(=O)c1sccc1NS(=O)(=O)c1cccc2nsnc12)C(=O)O [EG00229, reference compound]

NRP1 (IC50, nM) (NRP1; mean ± SD, n = 3): no inhibition
SMILES: CN1CCN(c2ccc(OC(F)(F)F)c(Nc3ncc4c(n3)-c3c(c(C(N)=O)nn3CCO)CC4)c2)CC1 [Onvansertib, onvansertib, reference compound]

IC50 (PLK1; mean ± SD, n = 3): 8.12 ± 0.34 nM
IC50 (NRP1; mean ± SD, n = 3): 12.7 ± 0.81 nM
SMILES: Cc1ncc(CCCN(C)CC(=O)N[C@@H](CCCN=C(N)N)C(=O)O)cc1Nc1ncc2c(n1)-c1ccc(C#N)cc1NC(=O)C2 [PLN-1]

IC50 (PLK1; mean ± SD, n = 3): 16.5 ± 2.86 nM
IC50 (NRP1; mean ± SD, n = 3): 24.3 ± 1.29 nM
SMILES: NC(N)=NCCC[C@H](NC(=O)CCCCCc1cncc(Nc2ncc3c(n2)-c2ccc(Cl)cc2NC(=O)C3)c1)C(=O)O [PLN-2]

IC50 (PLK1; mean ± SD, n = 3): 11.4 ± 0.74 nM
IC50 (NRP1; mean ± SD, n = 3): 30.5 ± 2.55 nM
SMILES: COc1ncc(Nc2ncc3c(n2)-c2ccc(Cl)cc2NC(=O)C3)cc1CCCCCC(=O)N[C@@H](CCCN=C(N)N)C(=O)O [PLN-3]

IC50 (PLK1; mean ± SD, n = 3): 4.51 ± 0.26 nM
IC50 (NRP1; mean ± SD, n = 3): 7.83 ± 0.42 nM
SMILES: CCc1ccc2c(c1)NC(=O)Cc1cnc(Nc3cc(CCCN(C)CC(=O)N[C@@H](CCCN=C(N)N)C(=O)O)cnc3C)nc1-2 [PLN-4]

IC50 (PLK1; mean ± SD, n = 3): 2.07 ± 0.13 nM
PLK1 potency relative to onvansertib (PLK1; ratio of IC50 values vs positive control onvansertib): approximately 9 fold
IC50 (NRP1; mean ± SD, n = 3): 5.15 ± 0.24 nM
NRP1 potency relative to EG00229 (NRP1; ratio of IC50 values vs positive control EG00229): ~124 fold
IC50 (PLK2): > 10000 nM
IC50 (PLK3): > 10 µM
IC50 (PLK4): > 10000 nM
IC50 (NRP2): > 10 µM
IC50 (NCI-H460 cells; Homo sapiens, NCI-H460, 72 h treatment, MTT, mean ± SD, n = 3): 0.27 ± 0.02 µM
IC50 (A549 cells): 0.41 ± 0.03 µM
SMILES: Cc1ncc(CCCN(C)CC(=O)N[C@@H](CCCN=C(N)N)C(=O)O)cc1Nc1ncc2c(n1)-c1ccc(Cl)cc1NC(=S)C2 [PLN-5]
cell survival rate of NCI-H460 cells (NCI-H460 cells; 2 μM compound): lowest survival rate
inhibition rate against NCI-H460 cells (NCI-H460 cells; MTT assay): more than 90%
IC50 (A427 cells): 0.33 ± 0.02 µM
IC50 (BEAS-2B cells; Homo sapiens, BEAS-2B): > 10 µM
IC50 (μM) BEAS-2B (BEAS-2B cells): no significant inhibitory effect
